Data reported in the NIST ThermoML archive (doi:10.1021/acs.jced.7b01085).
± gives the expanded uncertainty stated by the source.

Tests used:
[1] = Molar enthalpy of transition or fusion; details: Crystal; DSC
[2] = Crystal; DSC

Molar enthalpy of transition or fusion [1]: 3.64 ± 0.167 kcal/mol
Triple point temperature [2]: 369.26 ± 1.2 K
Compound: c1ccc2[nH]nnc2c1 [benzotriazole]
